According to PubChem BioAssay AID248 (DTP/NCI, 2004):
Inconclusive results and toxic doses are left out.

Tested on: L1210 leukemia ip in BDF1 mice, survival T/C
Experiment: NCI In Vivo Anticancer Drug Screen. Data for tumor model L1210 Leukemia (intraperitoneal) in B6D2F1 (BDF1) mice
Details: endpoint: mean survival time, higher = longer survival
How it was run: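 Tumor was transplanted into mice, which were then dosed with test compound or vehicle alone. Survival was recorded for each group, and the treated figure was expressed relative to the control figure.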

[1] = dose: 100.0 mg/kg/injection, schedule: Q04DX003 (ip), vehicle: saline with Tween-80
[2] = dose: 200.0 mg/kg/injection, schedule: Q04DX003 (ip), vehicle: saline with Tween-80
[3] = dose: 100.0 mg/kg/injection, schedule: Q01DX001 (ip), vehicle: saline
[4] = dose: 200.0 mg/kg/injection, schedule: Q01DX001 (ip), vehicle: saline
[5] = dose: 400.0 mg/kg/injection, schedule: Q01DX001 (ip), vehicle: saline
[6] = dose: 50.0 mg/kg/injection, schedule: Q01DX009 (ip), vehicle: saline with Tween-80
[7] = dose: 100.0 mg/kg/injection, schedule: Q01DX009 (ip), vehicle: Klucel (hydroxypropylcellulose) (HPC)
[8] = dose: 200.0 mg/kg/injection, schedule: Q01DX009 (ip), vehicle: Klucel (hydroxypropylcellulose) (HPC)
[9] = dose: 400.0 mg/kg/injection, schedule: Q01DX009 (ip), vehicle: Klucel (hydroxypropylcellulose) (HPC)
[10] = dose: 100.0 mg/kg/injection, schedule: Q01DX009 (ip), vehicle: saline with Tween-80
[11] = dose: 100.0 mg/kg/injection, schedule: Q01DX009 (ip), vehicle: saline
[12] = dose: 200.0 mg/kg/injection, schedule: Q01DX009 (ip), vehicle: saline
[13] = dose: 100.0 mg/kg/injection, schedule: Q04DX003 (ip), vehicle: Klucel (hydroxypropylcellulose) (HPC)
[14] = dose: 200.0 mg/kg/injection, schedule: Q04DX003 (ip), vehicle: Klucel (hydroxypropylcellulose) (HPC)
[15] = dose: 400.0 mg/kg/injection, schedule: Q04DX003 (ip), vehicle: Klucel (hydroxypropylcellulose) (HPC)
[16] = dose: 100.0 mg/kg/injection, schedule: Q04DX002 (ip), vehicle: saline
[17] = dose: 200.0 mg/kg/injection, schedule: Q04DX002 (ip), vehicle: saline
[18] = dose: 400.0 mg/kg/injection, schedule: Q04DX002 (ip), vehicle: saline
[19] = dose: 400.0 mg/kg/injection, schedule: Q04DX003 (ip), vehicle: saline with Tween-80

## C[S+]1Cc2ccccc2C1
[1]
  T/C: 106 % of control
[2]
  T/C: 104 % of control

## O=C(/C=C\c1ccccc1)NCCNC(=O)/C=C/c1ccccc1
[3]
  T/C: 105 % of control
[4]
  T/C: 94 % of control
[5]
  T/C: 108 % of control

## CC1COC(Nc2cccc3c2CCCC3)=N1 (stereo unspecified)
dose: 12.5 mg/kg/injection, schedule: Q01DX009 (ip), vehicle: saline with Tween-80
  T/C: 103 % of control
dose: 25.0 mg/kg/injection, schedule: Q01DX009 (ip), vehicle: saline with Tween-80
  T/C: 92 % of control
[6]
  T/C: 90 % of control

## O=c1c2[nH]cnc2ncn1Cc1ccccc1
dose: 100.0 mg/kg/injection, schedule: Q01DX001 (ip), vehicle: Klucel (hydroxypropylcellulose) (HPC)
  T/C: 102 % of control
dose: 200.0 mg/kg/injection, schedule: Q01DX001 (ip), vehicle: Klucel (hydroxypropylcellulose) (HPC)
  T/C: 98 % of control
dose: 400.0 mg/kg/injection, schedule: Q01DX001 (ip), vehicle: Klucel (hydroxypropylcellulose) (HPC)
  T/C: 109 % of control

## Cc1ccc([N+](=O)[O-])cc1NC(=O)Nc1ccccc1C(F)(F)F
[7]
  T/C: 93 % of control
[8]
  T/C: 96 % of control
[9]
  T/C: 95 % of control

## Cc1cc[n+]2cc3ccc4ccccc4c3c(C)c2c1
dose: 2.0 mg/kg/injection, schedule: Q01DX015 (ip), vehicle: saline
  T/C: 102 % of control
dose: 3.12 mg/kg/injection, schedule: Q01DX009 (ip), vehicle: acetone
  T/C: 106 % of control
dose: 4.0 mg/kg/injection, schedule: Q01DX015 (ip), vehicle: saline
  T/C: 95 % of control
dose: 6.25 mg/kg/injection, schedule: Q01DX009 (ip), vehicle: acetone
  T/C: 101 % of control
dose: 8.0 mg/kg/injection, schedule: Q01DX015 (ip), vehicle: saline
  T/C: 101 % of control
dose: 12.5 mg/kg/injection, schedule: Q04DX003 (ip), vehicle: acetone
  T/C: 106 % of control
dose: 16.0 mg/kg/injection, schedule: Q01DX015 (ip), vehicle: saline
  T/C: 118 % of control

## O=C(CNC(=O)Nc1cccc(Cl)c1Cl)N/N=C/c1ccccc1O
[6]
  T/C: 104 % of control
[10]
  T/C: 101 % of control
dose: 200.0 mg/kg/injection, schedule: Q01DX009 (ip), vehicle: saline with Tween-80
  T/C: 96 % of control

## O=P1(Cc2ccccc2)CC(Br)C(Br)C1 (stereo unspecified)
dose: 100.0 mg/kg/injection, schedule: Q04DX003 (ip), vehicle: other
  T/C: 101 % of control
dose: 200.0 mg/kg/injection, schedule: Q04DX003 (ip), vehicle: other
  T/C: 101 % of control
dose: 400.0 mg/kg/injection, schedule: Q04DX003 (ip), vehicle: other
  T/C: 101 % of control

## CCN=C(c1ccc(NC(=O)c2ccc(C(=O)Nc3ccc(C(=NCC)N(CC)C(C)=O)cc3)cc2)cc1)N(CC)C(C)=O
dose: 125.0 mg/kg/injection, schedule: Q01DX015 (ip), vehicle: methylcellulose (MC)
  T/C: 95 % of control
dose: 375.0 mg/kg/injection, schedule: Q01DX015 (ip), vehicle: methylcellulose (MC)
  T/C: 104 % of control
dose: 500.0 mg/kg/injection, schedule: Q01DX015 (ip), vehicle: methylcellulose (MC)
  T/C: 103 % of control

## N#Cc1[nH]cnc1N
[3]
  T/C: 94 % of control
[4]
  T/C: 105 % of control
[5]
  T/C: 97 % of control

## CN1CCN(Cc2c(O)ccc3c4c(c(=O)oc23)CCCC4)CC1
dose: 100.0 mg/kg/injection, schedule: Q01DX001 (ip), vehicle: carboxymethylcellulose (CMC)
  T/C: 98 % of control
dose: 200.0 mg/kg/injection, schedule: Q01DX001 (ip), vehicle: carboxymethylcellulose (CMC)
  T/C: 93 % of control

## [F][Sn]([c]1ccc(Cl)cc1)([c]1ccc(Cl)cc1)[c]1ccc(Cl)cc1
dose: 0.18 mg/kg/injection, schedule: Q04DX003 (ip), vehicle: other
  T/C: 97 % of control
dose: 0.37 mg/kg/injection, schedule: Q04DX003 (ip), vehicle: other
  T/C: 101 % of control
dose: 0.75 mg/kg/injection, schedule: Q04DX003 (ip), vehicle: other
  T/C: 93 % of control
dose: 1.5 mg/kg/injection, schedule: Q04DX003 (ip), vehicle: other
  T/C: 100 % of control

## CCCN(CCC)CC(C)(C)CO
[6]
  T/C: 96 % of control
[10]
  T/C: 101 % of control

## O=C(O)/C=C/C(=O)Nc1ccccc1-n1cccc1
[11]
  T/C: 106 % of control
[12]
  T/C: 97 % of control

## CCCCC(CC)C1OC(=O)C(C)O1 (stereo unspecified)
[7]
  T/C: 100 % of control
[13]
  T/C: 102 % of control
[8]
  T/C: 104 % of control
[14]
  T/C: 100 % of control
[9]
  T/C: 105 % of control
[15]
  T/C: 102 % of control

## CC(O)(C(=O)O)c1ccccc1 (stereo unspecified)
dose: 75.0 mg/kg/injection, schedule: Q01DX009 (ip), vehicle: other
  T/C: 99 % of control
dose: 100.0 mg/kg/injection, schedule: Q04DX003 (ip), vehicle: saline
  T/C: 100 % of control
dose: 150.0 mg/kg/injection, schedule: Q01DX009 (ip), vehicle: other
  T/C: 94 % of control
dose: 200.0 mg/kg/injection, schedule: Q04DX003 (ip), vehicle: saline
  T/C: 105 % of control
dose: 300.0 mg/kg/injection, schedule: Q01DX009 (ip), vehicle: other
  T/C: 100 % of control
dose: 400.0 mg/kg/injection, schedule: Q04DX003 (ip), vehicle: saline
  T/C: 91 % of control

## CSc1nc(N)nc2nc(C)c(C)cc12
dose: 100.0 mg/kg/injection, schedule: Q01DX Z (ip), vehicle: methylcellulose (MC)
  T/C: 90 % of control
dose: 200.0 mg/kg/injection, schedule: Q01DX Z (ip), vehicle: methylcellulose (MC)
  T/C: 89 % of control

## NC(=O)COc1ccc2ccccc2c1Cl
dose: 100.0 mg/kg/injection, schedule: Q04DX002 (ip), vehicle: Klucel (hydroxypropylcellulose) (HPC)
  T/C: 96 % of control
dose: 200.0 mg/kg/injection, schedule: Q04DX002 (ip), vehicle: Klucel (hydroxypropylcellulose) (HPC)
  T/C: 89 % of control

## CC(C)=NOC(CC(=O)O)C(=O)O (stereo unspecified)
[16]
  T/C: 96 % of control
[17]
  T/C: 96 % of control
[18]
  T/C: 96 % of control

## O=c1c2ccccc2nc2sc3ccccc3n12
dose: 100.0 mg/kg/injection, schedule: Q01DX009 (ip), vehicle: other
  T/C: 93 % of control
dose: 200.0 mg/kg/injection, schedule: Q01DX009 (ip), vehicle: other
  T/C: 107 % of control
dose: 400.0 mg/kg/injection, schedule: Q01DX009 (ip), vehicle: other
  T/C: 103 % of control

## O=C(O)c1nc[nH]c1C(=O)O
[11]
  T/C: 102 % of control
[13]
  T/C: 93 % of control
[12]
  T/C: 104 % of control
[14]
  T/C: 96 % of control
dose: 400.0 mg/kg/injection, schedule: Q01DX009 (ip), vehicle: saline
  T/C: 94 % of control
[15]
  T/C: 88 % of control

## NC(=O)C1CCNCC1
[16]
  T/C: 108 % of control
[17]
  T/C: 102 % of control
[18]
  T/C: 115 % of control

## O=C(O)CCc1c[nH]c2ccc(N(CCCl)CCCl)cc12
dose: 0.7 mg/kg/injection, schedule: Q01DX Z (ip), vehicle: carboxymethylcellulose (CMC)
  T/C: 114 % of control
dose: 1.5 mg/kg/injection, schedule: Q01DX Z (ip), vehicle: carboxymethylcellulose (CMC)
  T/C: 116 % of control
dose: 1.87 mg/kg/injection, schedule: Q01DX001 (ip), vehicle: carboxymethylcellulose (CMC)
  T/C: 121 % of control
dose: 3.75 mg/kg/injection, schedule: Q01DX001 (oral), vehicle: carboxymethylcellulose (CMC)
  T/C: 119 % of control
dose: 7.5 mg/kg/injection, schedule: Q01DX001 (ip), vehicle: carboxymethylcellulose (CMC)
  T/C: 173 % of control
dose: 15.0 mg/kg/injection, schedule: Q01DX001 (oral), vehicle: carboxymethylcellulose (CMC)
  T/C: 103 % of control

## CNS(=O)(=O)CCC1NC(=O)NC1=O (stereo unspecified)
[1]
  T/C: 100 % of control
[2]
  T/C: 105 % of control
[19]
  T/C: 101 % of control

## COc1ccc(S(=O)Nc2ccccc2)cc1 (stereo unspecified)
dose: 25.6 mg/kg/injection, schedule: Q04DX002 (ip), vehicle: saline with Tween-80
  T/C: 108 % of control
dose: 64.0 mg/kg/injection, schedule: Q04DX002 (ip), vehicle: saline with Tween-80
  T/C: 115 % of control
dose: 160.0 mg/kg/injection, schedule: Q04DX002 (ip), vehicle: saline with Tween-80
  T/C: 101 % of control
dose: 400.0 mg/kg/injection, schedule: Q04DX002 (ip), vehicle: saline with Tween-80
  T/C: 112 % of control
[19]
  T/C: 95 % of control

## O=P1(CCc2ccccc2)CC(Br)C(Br)C1 (stereo unspecified)
[13]
  T/C: 101 % of control
[14]
  T/C: 106 % of control
[15]
  T/C: 98 % of control
